# Assay results from publication PMC10233829 (ACS Omega, 2023).
# What was measured:
# [1] = test system: S. epidermidis ATCC 12228; assay: MIC, twofold microdilution, standard strain; format: cell-based; conditions: Staphylococcus epidermidis, ATCC12228, 18 h
# [2] = test system: clinical bacterial strains; assay: MIC, clinical isolates as groups of strains; format: cell-based; conditions: for MIC: clinical strains, read-out: MIC against selected E. coli and E. cloacae strains
# E. coli 951 = assay: MIC, twofold microdilution, clinical strain; format: cell-based; conditions: Escherichia coli, 18 h
# P. aeruginosa 37 = assay: MIC, twofold microdilution, clinical strain; format: cell-based; conditions: Pseudomonas aeruginosa, 18 h
# S. pasteuri KR 4358 = assay: MIC, twofold microdilution, clinical strain; format: cell-based; conditions: Staphylococcus pasteuri, KR4358, 18 h
# [3] = test system: P. aeruginosa ATCC 15442 and E. coli ATCC 25922; assay: MIC, standard Gram-negative rods as a panel; format: cell-based; conditions: P. aeruginosa ATCC 15442, E. coli ATCC 25922; read-out: MIC against standard Gram-negative rods (range over strains)
# S. aureus ATCC 25923 = assay: MIC, twofold microdilution, standard strain; format: cell-based; conditions: Staphylococcus aureus, ATCC25923, 18 h
# S. aureus NCTC 4163 = assay: MIC, twofold microdilution, standard strain; format: cell-based; conditions: Staphylococcus aureus, NCTC4163, 18 h
# S. aureus T5591 = assay: MIC, twofold microdilution, clinical strain; format: cell-based, Staphylococcus aureus; conditions: for MIC: Staphylococcus aureus, T5591, 18 h
# P. aeruginosa 659 = assay: MIC, twofold microdilution, clinical strain; format: cell-based; conditions: Pseudomonas aeruginosa, 18 h
# S. aureus ATCC 6538 = assay: MIC, twofold microdilution, standard strain; format: cell-based, Staphylococcus aureus; conditions: Staphylococcus aureus, ATCC6538; standard strain, 18 h
# S. aureus ATCC 29213 = assay: MIC, twofold microdilution, standard strain; format: cell-based; conditions: Staphylococcus aureus, ATCC29213, 18 h
# S. epidermidis 4341 = assay: MIC, twofold microdilution, clinical strain; format: cell-based; conditions: Staphylococcus epidermidis, 18 h
# PC3 cells = assay: MTT assay, cytotoxic activity; format: cell-based, human; conditions: Homo sapiens, PC-3, 72 h, MTT, 72 h
# Protocol: Metastatic prostate cancer (PC3) and human immortal keratinocyte (HaCaT) cell lines were purchased from the American Type Culture Collection (ATCC, Rockville, MD, USA) and cultured in MEM (minimal essential medium, Thermo Sci, USA), RPMI 1640 (Roswell Park Memorial Institute, Biowest SAS, France), and DMEM (Dulbecco’s Modified Eagle’s Medium, Biowest SAS, France). Cells were seeded in 6 mL medium in a tissue culture flask (50 mL) in a 37 °C/5% CO2 humidified incubator. […] MTT analysis was performed according to a previous study.[59] Untreated cells were used as controls. Cell absorbance results were inserted into the formula for the relative MTT level (%). It allows to calculate the viability of cells under the influence of the tested compounds. Cell viability was expressed as the percentage of MTT reduction in cells treated with tested compounds compared to the control sample. The relative MTT level was calculated using the formula [100%] = A/B × 100% where A—the test sample absorbance and B—the control sample absorbance.
# E. coli 520 = assay: MIC, twofold microdilution, clinical strain; format: cell-based; conditions: Escherichia coli, 18 h
# [4] = test system: S. epidermidis ATCC 35984; assay: MIC, twofold microdilution, standard strain; format: cell-based; conditions: Staphylococcus epidermidis, ATCC35984, 18 h
# [5] = MTT assay, cytotoxic activity; format: cell-based; conditions: human, HaCaT cells (immortal keratinocytes); MTT, 72 h, normal cell line; read-out: IC50 HaCaT
# Protocol: Cells were seeded in 6 mL medium in a tissue culture flask (50 mL) in a 37 °C/5% CO2 humidified incubator. […] MTT analysis was performed according to a previous study.[59] Untreated cells were used as controls. Cell absorbance results were inserted into the formula for the relative MTT level (%). It allows to calculate the viability of cells under the influence of the tested compounds. Cell viability was expressed as the percentage of MTT reduction in cells treated with tested compounds compared to the control sample. The relative MTT level was calculated using the formula [100%] = A/B × 100% where A—the test sample absorbance and B—the control sample absorbance.
# M. tuberculosis Spec 210 = assay: microbe, parasite or virus in culture; format: cell-based, Mycobacterium tuberculosis; conditions: M. tuberculosis Spec. 210
# S. epidermidis KR4243/1 = assay: MIC, twofold microdilution, clinical strain; format: cell-based; conditions: Staphylococcus epidermidis, 18 h
# M. tuberculosis H37Rv = assay: Tuberculostatic activity, Microplate Alamar Blue Assay (MIC); format: cell-based, Mycobacterium tuberculosis; conditions: Mycobacterium tuberculosis, H37RV; MABA; read-out: MIC M. tuberculosis H37Rv
# S. epidermidis 5253 = assay: MIC, twofold microdilution, clinical strain; format: cell-based, Staphylococcus epidermidis; conditions: Staphylococcus epidermidis, 5253, 18 h
# S. aureus 5595 = assay: MIC, twofold microdilution, clinical strain; format: cell-based; conditions: Staphylococcus aureus, 18 h
# S. aureus T5595 = assay: MIC, twofold microdilution, clinical strain; format: cell-based, Staphylococcus aureus; conditions: for MIC: Staphylococcus aureus, T5595, 18 h
# S. aureus 180 = assay: MIC, twofold microdilution, clinical strain; format: cell-based; conditions: Staphylococcus aureus, 18 h
# E. coli ATCC 25922 = assay: MIC, twofold microdilution, standard strain; format: cell-based, Escherichia coli; conditions: Escherichia coli, ATCC25922; standard strain, 18 h
# E. cloacae 8 = assay: MIC, twofold microdilution, clinical strain; format: cell-based, Escherichia cloacae; conditions: Enterobacter cloacae, 8; clinical strain, 18 h
# E. coli 600 = assay: MIC, twofold microdilution, clinical strain; format: cell-based, Escherichia coli; conditions: for MIC: Escherichia coli, 600, 18 h
# P. aeruginosa ATCC 15442 = assay: MIC, twofold microdilution, standard strain; format: cell-based, Pseudomonas aeruginosa; conditions: Pseudomonas aeruginosa, ATCC15442; standard strain, 18 h
# K. pneumoniae 28 = assay: MIC, twofold microdilution, clinical strain; format: cell-based; conditions: Klebsiella pneumoniae, 18 h
# K. pneumoniae 510 = assay: MIC, twofold microdilution, clinical strain; format: cell-based, Klebsiella pneumoniae; conditions: Klebsiella pneumoniae, 510; clinical strain, 18 h
# [6] = test system: M. tuberculosis Spec. 192; assay: Tuberculostatic activity, Microplate Alamar Blue Assay (MIC); format: cell-based; conditions: Mycobacterium tuberculosis, MABA, read-out: MIC M. tuberculosis Spec. 192 (sensitive to tuberculostatics)
# [7] = test system: Staphylococci (standard strains); assay: MIC, standard Gram-positive strains as a panel; format: cell-based, S. aureus, S. epidermidis; conditions: standard Gram-positive strains of Table 1; read-out: MIC toward standard Staphylococci (range over strains)
Structure (SMILES),MIC [1] [µg/mL],MIC (E. coli 951) [µg/mL],MIC (P. aeruginosa 37) [µg/mL],MIC (S. pasteuri KR 4358) [µg/mL],MIC (S. aureus ATCC 25923) [µg/mL],MIC (S. aureus NCTC 4163) [µg/mL],MIC (S. aureus T5591) [µg/mL],MIC (P. aeruginosa 659) [µg/mL],MIC (S. aureus ATCC 6538) [µg/mL],MIC (S. aureus ATCC 29213) [µg/mL],MIC (S. epidermidis 4341) [µg/mL],IC50 (PC3 cells) [µM],MIC (E. coli 520) [µg/mL],MIC [4] [µg/mL],IC50 at 72 h [5] [µM],MIC (S. epidermidis KR4243/1) [µg/mL],MIC (M. tuberculosis H37Rv) [µg/mL],MIC (S. epidermidis 5253) [µg/mL],MIC (S. aureus 5595) [µg/mL],MIC (S. aureus T5595) [µg/mL],further results
"O=C(O)c1cn(C2CC2)c2cc(N3CCN(C(=O)CCBr)CC3)c(F)cc2c1=O [Compound 9, 7-[4-(3-Bromopropionyl)-piperazin-1-yl]-1-cyclopropyl-6-fluoro-4-oxo-1,4-dihydro-quinoline-3-carboxylic Acid]",0.2,64,128,0.2,0.2,0.1,0.1 to 0.2,> 25.6,0.2,0.2,16,69.1 ± 5.8,0.8,0.2,> 100,0.1,2,128,0.5,0.1 to 0.2,times more powerful than CP ([2]; S. aureus T5595 and T5591): 1.25–2.5 times; MIC [2]: 0.1 to 0.8 µg/mL; MIC [3]: ≤ 1 µg/mL; MIC S. aureus T5591 (S. aureus T5591; 18 h): 0.1 µg/mL; fold more effective than the reference tuberculostatics (M. tuberculosis Spec 210): 8–32 fold; MIC S. aureus T5595 (S. aureus T5595; 18 h): 0.2 µg/mL; MIC (S. aureus 180): 0.5 µg/mL; MIC (E. coli ATCC 25922): 0.4 µg/mL; MIC (E. cloacae 8): 2 µg/mL; MIC E. coli 600 (E. coli 600; 18 h): –0.4 μg/mL; MIC (P. aeruginosa ATCC 15442): 12.8 µg/mL; MIC (K. pneumoniae 28): > 25.6 µg/mL; MIC (K. pneumoniae 510): > 25.6 µg/mL; MIC [6]: 2 µg/mL
"O=C(O)c1cn(C2CC2)c2cc(N3CCN(C(=O)CCCCCCl)CC3)c(F)cc2c1=O [Compound 7, 7-[4-(6-Chlorohexanoyl)-piperazin-1-yl]-1-cyclopropyl-6-fluoro-4-oxo-1,4-dihydro-quinoline-3-carboxylic Acid]",0.4,> 25.6,> 25.6,0.2,0.2,0.2,0.4,> 25.6,0.2,0.2,25.6,> 100,6.4,0.2,> 100,0.2,0.5,> 25.6,0.5,0.4,share of the reference (CP) activity ([2]; S. aureus T5595 and T5591): 62.5%; MIC [3]: ≤ 1 µg/mL; MIC [7]: 0.1 to 0.8 µg/mL; MIC (S. aureus 180): 0.5 µg/mL; MIC (E. coli ATCC 25922): 0.8 µg/mL; MIC (E. cloacae 8): 16 µg/mL; MIC (E. coli 600): 6.4 µg/mL; MIC (P. aeruginosa ATCC 15442): 12.8 µg/mL; MIC (K. pneumoniae 28): > 25.6 µg/mL; MIC (K. pneumoniae 510): > 25.6 µg/mL; MIC [6]: 0.5 µg/mL
"O=C(O)c1cn(C2CC2)c2cc(N3CCN(C(=O)CCCCCBr)CC3)c(F)cc2c1=O [Compound 12, 7-[4-(6-Bromohexanoyl)-piperazin-1-yl]-1-cyclopropyl-6-fluoro-4-oxo-1,4-dihydro-quinoline-3-carboxylic Acid]",1.6,> 25.6,> 25.6,0.8,1.6,0.8,0.8,> 25.6,1.6,1.6,64,29.7 ± 5,0.8,0.8,> 100,0.8,1,> 25.6,0.5,0.8,MIC [2]: 0.1 to 0.8 µg/mL; MIC [7]: 0.8 to 1.6 µg/mL; MIC (S. aureus 180): 0.5 µg/mL; MIC (E. coli ATCC 25922): 1.6 µg/mL; MIC (E. cloacae 8): > 25.6 µg/mL; MIC (E. coli 600): 0.4 µg/mL; MIC (P. aeruginosa ATCC 15442): 25.6 µg/mL; MIC (K. pneumoniae 28): > 25.6 µg/mL; MIC (K. pneumoniae 510): > 25.6 µg/mL; MIC [6]: 1 µg/mL
